Test results from patent USRE38921E1, “Phenoxyalkylcarboxylic acid derivatives and process for their preparations” (Kyorin Pharmaceutical Co., Ltd., priority 1988, dated 2005).

Columns and labels:
[1] = system: bronchoconstrictor response induced by leukotriene D4; experiment: Inhibition test of bronchoconstriction in guinea pig; type: in vivo; design: unit not given here; conditions: 2 hours before i.v. leukotriene D4 (3 μg/kg), anesthetized male Hartley guinea pig
Description: Male Hartley guinea pig weighing about 450 g was anesthetized with sodium pentobarbital (30 mg/kg,i.p.), and the changes in transpulmonary pressure was measured according to the modified method of Konzett-Rössler (J. Harvey et al., J. Pharmacol. Method. 9, 147-155, 1983). Bronchoconstrictor response was induced by injection of leukotriene D4 (3 μg/kg) into left jugular vein. Further, indomethacin and propranolol were injected into vein of the animal, prior to the injection of leukotriene D4. Test compounds suspended in 5% solution of Gum Arabic were administered orally 2 hours before the injection of leukotriene D4.

Row | SMILES | Inhibition ([1]; dose 6.25 mg/kg p.o.) | Inhibition ([1]; dose 12.5 mg/kg p.o.) | Inhibition ([1]; dose 50 mg/kg p.o.) | melting point [°C] | Inhibition ([1]; dose 3.125 mg/kg p.o.) | Inhibition ([1]; dose 1.56 mg/kg p.o.)
1 | CCCc1c(SCCCSc2ccc(C(C)=O)c(OCCCCCCCCC(=O)O)c2CCC)ccc(C(C)=O)c1O [Example 49] | 19.1 | 58.9 | 77.7 | – | – | –
2 | CCCc1c([S+]([O-])CCCOc2ccc(C(C)=O)c(OCCCC(=O)OCC)c2CCC)ccc(C(C)=O)c1O (stereo not drawn) [Example 31, Ethyl 4-[6-acetyl-3-[3-(4-acetyl-3-hydroxy-2-propyl-phenylsulfinyl)propoxy]-2-propylphenoxy]butyrate] | – | – | – | 74 to 76 | – | –
3 | CCCc1c(SCCCOc2ccc(C(C)=O)c(OCCCCCC(=O)O)c2CCC)ccc(C(C)=O)c1O [Example 35] | 10.7 | 51.3 | 92.4 | – | – | –
4 | CCCc1c(OCCCSc2ccc(C(C)=O)c(OCCCC(=O)OCC)c2CCC)ccc(C(C)=O)c1O [Example 23, Ethyl 4-[6-acetyl-3-[3-(4-acetyl-3-hydroxy-2-propyl-phenoxy)propylthio]-2-propylphenoxy]butyrate] | – | – | – | 87 to 88 | – | –
5 | CCCc1c(OCCCSc2ccc(C(C)=O)c(OCCCC(=O)O)c2CCC)ccc(C(C)=O)c1O [Example 53] | 50.4 | 60.4 | 66.7 | – | 15.2 | –
6 | CCCc1c(S(=O)(=O)CCCOc2ccc(C(C)=O)c(OCCCC(=O)OCC)c2CCC)ccc(C(C)=O)c1O [Example 32, Ethyl 4-[6-acetyl-3-[3-(4-acetyl-3-hydroxy-2-propyl-phenylsulfonyl)propoxy]-2-propylphenoxy]butyrate] | – | – | – | 77 to 79 | – | –
7 | CCCc1c(SCCCOc2ccc(C(C)=O)c(OCCCC(=O)O)c2CCC)ccc(C(C)=O)c1O [Example 33, 4-[6-Acetyl-3-[3-(4-acetyl-3-hydroxy-2-propyl-phenylthio)propoxy]-2-propylphenoxy]butyric acid] | 40.2 | 63.9 | 94.8 | – | 28.0 | –
8 | CCCc1c(SCCCSc2ccc(C(C)=O)c(OCCCC(=O)O)c2CCC)ccc(C(C)=O)c1O [Example 45] | 71.3 | 72.7 | 96.2 | – | 54.2 | 22.4
9 | CCCc1c(SCCCSc2ccc(C(C)=O)c(OCCCCCC(=O)O)c2CCC)ccc(C(C)=O)c1O [Example 47] | – | 72.5 | 92.9 | – | 29.1 | –
10 | CCCc1c(OCCCSc2ccc(C(C)=O)c(OCCCCCC(=O)O)c2CCC)ccc(C(C)=O)c1O [Example 55] | 36.4 | 45.0 | 88.0 | – | – | –
11 | CCCc1c(SCCCSc2ccc(C(C)=O)c(OCCCCCCC(=O)O)c2CCC)ccc(C(C)=O)c1O [Example 48] | – | 79.7 | 90.7 | – | 33.6 | –
12 | CCCc1c(SCCCOc2ccc(C(C)=O)c(OCCCC(=O)OCC)c2CCC)ccc(C(C)=O)c1O [Example 1, Ethyl 4-[6-acetyl-3-[3-(4-acetyl-3-hydroxy-2-propylphenylthio)propoxy]-2-propylphenoxy]butyrate] | – | – | – | 65 to 66 | – | –
13 | CCCc1c(SCCCSc2ccc(C(C)=O)c(OCCCCC(=O)O)c2CCC)ccc(C(C)=O)c1O [Example 46] | 46.6 | 37.5 | 94.2 | – | 38.5 | –
